Reference: patent US8779004B2, “Stable emulsion formulations” (Amgen, Inc., priority 2006, dated 2014)

Experiment: Short-term storage stability of emulsions (drug conc., pH, particle size)
Format: physicochemical
Conditions: for stability in the emulsion formulation: over 12 weeks, 5° C. and 40° C.; for Cinacalcet conc. / D(4, 3) / pH: emulsion
Text: This Example illustrates the effect of the storage temperature on short-term stability of the formulations of the invention as measured by pH and the size of the droplets. The results of short term stability of cinacalcet at different temperatures and varying TRIS buffer concentrations are presented in Table 8. Cinacalcet was stable in the emulsion formulation over 12 weeks. The pH of the emulsion is lower over time for both placebo and cinacalcet emulsions. The drop in pH is less at lower storage temperature and higher TRIS concentration.
The results of short-term stability of cinacalcet at different temperatures and varying DEA buffer concentrations are presented in Table 9. Cinacalcet was stable in the emulsion formulation over 12 weeks. pH of the emulsion is lower over time for both placebo and cinacalcet emulsion. The drop in pH is less at lower storage temperature and higher DEA concentration.

Structure (SMILES): C[C@@H](NCCCc1cccc(C(F)(F)F)c1)c1cccc2ccccc12 [Cinacalcet, N-(1-(R)-(1-naphthyl)ethyl]-3-[3-(trifluoromethyl)phenyl]-1-aminopropane]
- stability in the emulsion formulation (DEA buffered emulsion): stable
- stability in the emulsion formulation (TRIS buffered emulsion): stable
- Cinacalcet conc. (DEA 0.05%, 5° C., 0 weeks): 4.42 mg/mL
- D(4, 3) (DEA 0.05%, 5° C., 0 weeks): 0.39 µm
- pH (DEA 0.05%, 5° C., 0 weeks): 8.77
- Cinacalcet conc. (DEA 0.05%, 5° C., 2 weeks): 4.14 mg/mL
- D(4, 3) (DEA 0.05%, 5° C., 2 weeks): 0.39 µm
- pH (DEA 0.05%, 5° C., 2 weeks): 8.64
- Cinacalcet conc. (DEA 0.05%, 5° C., 4 weeks): 4.35 mg/mL
- D(4, 3) (DEA 0.05%, 5° C., 4 weeks): 0.4 µm
- pH (DEA 0.05%, 5° C., 4 weeks): 8.65
- Cinacalcet conc. (DEA 0.05%, 5° C., 6 weeks): 4.28 mg/mL
- D(4, 3) (DEA 0.05%, 5° C., 6 weeks): 0.76 µm
- pH (DEA 0.05%, 5° C., 6 weeks): 8.59
- Cinacalcet conc. (DEA 0.05%, 5° C., 8 weeks): 4.43 mg/mL
- D(4, 3) (DEA 0.05%, 5° C., 8 weeks): 0.4 µm
- pH (DEA 0.05%, 5° C., 8 weeks): 8.67
- Cinacalcet conc. (DEA 0.05%, 5° C., 12 weeks): 4.29 mg/mL
- D(4, 3) (DEA 0.05%, 5° C., 12 weeks): 0.4 µm
- pH (DEA 0.05%, 5° C., 12 weeks): 8.58
- Cinacalcet conc. (DEA 0.05%, 40° C., 0 weeks): 4.42 mg/mL
- D(4, 3) (DEA 0.05%, 40° C., 0 weeks): 0.39 µm
- pH (DEA 0.05%, 40° C., 0 weeks): 8.77
- Cinacalcet conc. (DEA 0.05%, 40° C., 2 weeks): 4.15 mg/mL
- D(4, 3) (DEA 0.05%, 40° C., 2 weeks): 0.39 µm
- pH (DEA 0.05%, 40° C., 2 weeks): 8.46
- Cinacalcet conc. (DEA 0.05%, 40° C., 4 weeks): 4.30 mg/mL
- D(4, 3) (DEA 0.05%, 40° C., 4 weeks): 0.4 µm
- pH (DEA 0.05%, 40° C., 4 weeks): 8.36
- Cinacalcet conc. (DEA 0.05%, 40° C., 6 weeks): 4.28 mg/mL
- D(4, 3) (DEA 0.05%, 40° C., 6 weeks): 0.39 µm
- pH (DEA 0.05%, 40° C., 6 weeks): 8.25
- Cinacalcet conc. (DEA 0.05%, 40° C., 8 weeks): 4.39 mg/mL
- D(4, 3) (DEA 0.05%, 40° C., 8 weeks): 0.43 µm
- pH (DEA 0.05%, 40° C., 8 weeks): 8.29
- Cinacalcet conc. (DEA 0.05%, 40° C., 12 weeks): 4.31 mg/mL
- D(4, 3) (DEA 0.05%, 40° C., 12 weeks): 0.43 µm
- pH (DEA 0.05%, 40° C., 12 weeks): 8.12
- Cinacalcet conc. (DEA 0.30%, 5° C., 0 weeks): 4.78 mg/mL
- D(4, 3) (DEA 0.30%, 5° C., 0 weeks): 0.36 µm
- pH (DEA 0.30%, 5° C., 0 weeks): 9.12
- Cinacalcet conc. (DEA 0.30%, 5° C., 2 weeks): 4.60 mg/mL
- D(4, 3) (DEA 0.30%, 5° C., 2 weeks): 0.35 µm
- pH (DEA 0.30%, 5° C., 2 weeks): 9.07
- Cinacalcet conc. (DEA 0.30%, 5° C., 4 weeks): 4.67 mg/mL
- D(4, 3) (DEA 0.30%, 5° C., 4 weeks): 0.37 µm
- pH (DEA 0.30%, 5° C., 4 weeks): 9.12
- Cinacalcet conc. (DEA 0.30%, 5° C., 6 weeks): 4.60 mg/mL
- D(4, 3) (DEA 0.30%, 5° C., 6 weeks): 0.37 µm
- pH (DEA 0.30%, 5° C., 6 weeks): 9.11
- Cinacalcet conc. (DEA 0.30%, 5° C., 8 weeks): 4.79 mg/mL
- D(4, 3) (DEA 0.30%, 5° C., 8 weeks): 0.37 µm
- pH (DEA 0.30%, 5° C., 8 weeks): 9.15
- Cinacalcet conc. (DEA 0.30%, 5° C., 12 weeks): 4.66 mg/mL
- D(4, 3) (DEA 0.30%, 5° C., 12 weeks): 0.36 µm
- Cinacalcet conc. (DEA 0.30%, 40° C., 0 weeks): 4.78 mg/mL
- D(4, 3) (DEA 0.30%, 40° C., 0 weeks): 0.36 µm
- pH (DEA 0.30%, 40° C., 0 weeks): 9.12
- Cinacalcet conc. (DEA 0.30%, 40° C., 2 weeks): 4.58 mg/mL
- D(4, 3) (DEA 0.30%, 40° C., 2 weeks): 0.36 µm
- pH (DEA 0.30%, 40° C., 2 weeks): 8.98
- Cinacalcet conc. (DEA 0.30%, 40° C., 4 weeks): 4.73 mg/mL
- D(4, 3) (DEA 0.30%, 40° C., 4 weeks): 0.36 µm
- pH (DEA 0.30%, 40° C., 4 weeks): 8.99
- Cinacalcet conc. (DEA 0.30%, 40° C., 6 weeks): 4.65 mg/mL
- D(4, 3) (DEA 0.30%, 40° C., 6 weeks): 0.36 µm
- pH (DEA 0.30%, 40° C., 6 weeks): 8.93
- Cinacalcet conc. (DEA 0.30%, 40° C., 8 weeks): 4.83 mg/mL
- D(4, 3) (DEA 0.30%, 40° C., 8 weeks): 0.37 µm
- pH (DEA 0.30%, 40° C., 8 weeks): 8.95
- Cinacalcet conc. (DEA 0.30%, 40° C., 12 weeks): 4.71 mg/mL
- D(4, 3) (DEA 0.30%, 40° C., 12 weeks): 0.38 µm
- Cinacalcet conc. (TRIS 5 mM, 5° C., 0 weeks): 4.43 mg/mL
- D(4, 3) (TRIS 5 mM, 5° C., 0 weeks): 0.31 µm
- pH (TRIS 5 mM, 5° C., 0 weeks): 8.80
- Cinacalcet conc. (TRIS 5 mM, 5° C., 2 weeks): 4.18 mg/mL
- D(4, 3) (TRIS 5 mM, 5° C., 2 weeks): 0.31 µm
- pH (TRIS 5 mM, 5° C., 2 weeks): 8.69
- Cinacalcet conc. (TRIS 5 mM, 5° C., 4 weeks): 4.38 mg/mL
- D(4, 3) (TRIS 5 mM, 5° C., 4 weeks): 0.3 µm
- pH (TRIS 5 mM, 5° C., 4 weeks): 8.65
- Cinacalcet conc. (TRIS 5 mM, 5° C., 6 weeks): 4.33 mg/mL
- D(4, 3) (TRIS 5 mM, 5° C., 6 weeks): 0.3 µm
- pH (TRIS 5 mM, 5° C., 6 weeks): 8.59
- Cinacalcet conc. (TRIS 5 mM, 5° C., 8 weeks): 4.47 mg/mL
- D(4, 3) (TRIS 5 mM, 5° C., 8 weeks): 0.31 µm
- pH (TRIS 5 mM, 5° C., 8 weeks): 8.60
- Cinacalcet conc. (TRIS 5 mM, 5° C., 12 weeks): 4.32 mg/mL
- D(4, 3) (TRIS 5 mM, 5° C., 12 weeks): 0.31 µm
- pH (TRIS 5 mM, 5° C., 12 weeks): 8.50
- Cinacalcet conc. (TRIS 5 mM, 40° C., 0 weeks): 4.43 mg/mL
- D(4, 3) (TRIS 5 mM, 40° C., 0 weeks): 0.31 µm
- pH (TRIS 5 mM, 40° C., 0 weeks): 8.80
- Cinacalcet conc. (TRIS 5 mM, 40° C., 2 weeks): 4.17 mg/mL
- D(4, 3) (TRIS 5 mM, 40° C., 2 weeks): 0.31 µm
- pH (TRIS 5 mM, 40° C., 2 weeks): 8.41
- Cinacalcet conc. (TRIS 5 mM, 40° C., 4 weeks): 4.36 mg/mL
- D(4, 3) (TRIS 5 mM, 40° C., 4 weeks): 0.31 µm
- pH (TRIS 5 mM, 40° C., 4 weeks): 8.29
- Cinacalcet conc. (TRIS 5 mM, 40° C., 6 weeks): 4.29 mg/mL
- D(4, 3) (TRIS 5 mM, 40° C., 6 weeks): 0.47 µm
- pH (TRIS 5 mM, 40° C., 6 weeks): 8.20
- Cinacalcet conc. (TRIS 5 mM, 40° C., 8 weeks): 4.45 mg/mL
- D(4, 3) (TRIS 5 mM, 40° C., 8 weeks): 0.48 µm
- pH (TRIS 5 mM, 40° C., 8 weeks): 8.11
- Cinacalcet conc. (TRIS 5 mM, 40° C., 12 weeks): 4.33 mg/mL
- D(4, 3) (TRIS 5 mM, 40° C., 12 weeks): 0.36 µm
- pH (TRIS 5 mM, 40° C., 12 weeks): 8.12
- Cinacalcet conc. (TRIS 20 mM, 5° C., 0 weeks): 4.92 mg/mL
- D(4, 3) (TRIS 20 mM, 5° C., 0 weeks): 0.29 µm
- pH (TRIS 20 mM, 5° C., 0 weeks): 9.13
- Cinacalcet conc. (TRIS 20 mM, 5° C., 2 weeks): 4.47 mg/mL
- D(4, 3) (TRIS 20 mM, 5° C., 2 weeks): 0.29 µm
- pH (TRIS 20 mM, 5° C., 2 weeks): 8.98
- Cinacalcet conc. (TRIS 20 mM, 5° C., 4 weeks): 4.79 mg/mL
- D(4, 3) (TRIS 20 mM, 5° C., 4 weeks): 0.29 µm
- pH (TRIS 20 mM, 5° C., 4 weeks): 8.99
- Cinacalcet conc. (TRIS 20 mM, 5° C., 6 weeks): 4.72 mg/mL
- D(4, 3) (TRIS 20 mM, 5° C., 6 weeks): 0.28 µm
- pH (TRIS 20 mM, 5° C., 6 weeks): 8.87
- Cinacalcet conc. (TRIS 20 mM, 5° C., 8 weeks): 4.91 mg/mL
- D(4, 3) (TRIS 20 mM, 5° C., 8 weeks): 0.29 µm
- pH (TRIS 20 mM, 5° C., 8 weeks): 9.02
- Cinacalcet conc. (TRIS 20 mM, 5° C., 12 weeks): 4.76 mg/mL
- D(4, 3) (TRIS 20 mM, 5° C., 12 weeks): 0.29 µm
- pH (TRIS 20 mM, 5° C., 12 weeks): 8.93
- Cinacalcet conc. (TRIS 20 mM, 40° C., 0 weeks): 4.92 mg/mL
- D(4, 3) (TRIS 20 mM, 40° C., 0 weeks): 0.29 µm
- pH (TRIS 20 mM, 40° C., 0 weeks): 9.13
- Cinacalcet conc. (TRIS 20 mM, 40° C., 2 weeks): 4.48 mg/mL
- D(4, 3) (TRIS 20 mM, 40° C., 2 weeks): 0.29 µm
- pH (TRIS 20 mM, 40° C., 2 weeks): 8.82
- Cinacalcet conc. (TRIS 20 mM, 40° C., 4 weeks): 4.75 mg/mL
- D(4, 3) (TRIS 20 mM, 40° C., 4 weeks): 0.29 µm
- pH (TRIS 20 mM, 40° C., 4 weeks): 8.79
- Cinacalcet conc. (TRIS 20 mM, 40° C., 6 weeks): 4.73 mg/mL
- D(4, 3) (TRIS 20 mM, 40° C., 6 weeks): 0.29 µm
- pH (TRIS 20 mM, 40° C., 6 weeks): 8.75
- Cinacalcet conc. (TRIS 20 mM, 40° C., 8 weeks): 4.96 mg/mL
- D(4, 3) (TRIS 20 mM, 40° C., 8 weeks): 0.29 µm
- pH (TRIS 20 mM, 40° C., 8 weeks): 8.76
- Cinacalcet conc. (TRIS 20 mM, 40° C., 12 weeks): 4.82 mg/mL
- D(4, 3) (TRIS 20 mM, 40° C., 12 weeks): 0.29 µm
- pH (TRIS 20 mM, 40° C., 12 weeks): 8.63
